Experimental findings from PMC7449170, “ATI-2173, a Novel Liver-Targeted Non-Chain-Terminating Nucleotide for Hepatitis B Virus Cure Regimens” (Antimicrobial Agents and Chemotherapy, 2020) are described below.

The term pEC50 denotes the EC50 on a negative log10 scale, so that one unit is a factor of ten. Broadly, the fraction unbound is free concentration divided by total concentration. In general, CC50 refers to the concentration at which the toxic effect on the cells reaches its halfway point.

Data set [1] relates to human immunodeficiency virus 1. As to the kind of experiment: Antiviral panel: human immunodeficiency virus 1. It is filed as cell-based. The settings on record: up to 100 μM, data not shown.
The test system of data set [2] is HBV genotype A (HE974371). Kind of data set: microbe, parasite or virus in culture. It is filed as cell-based. The settings on record: Hepatitis B virus, HepG2.
Data set [3] relates to HepG2 cells. Kind of data set: Mitochondrial toxicity, glucose/galactose assay. The following applies: 20 mM glucose or 10 mM galactose, up to 100 μM, day 11.
Data set [4] concerns HBV rtV173L+M204I. Kind of data set: microbe, parasite or virus in culture. The following applies: Hepatitis B virus, HepG2. The data set is classed as cell-based.
Data set [5] can be described thus: Protein binding. It is filed as in vitro ADME. The settings on record: data not shown.
Data set [6] deals with herpes simplex virus 1. As to the kind of experiment: Antiviral panel: herpes simplex virus 1. The data set is classed as cell-based. The following applies: up to 100 μM, data not shown.
The subject of data set [7] is HBV rtM204V. As to the kind of experiment: microbe, parasite or virus in culture. It is filed as cell-based. The settings on record: Hepatitis B virus, HepG2.
For data set [8], the system named is HBV genotype D. Kind of data set: microbe, parasite or virus in culture. The following applies: Hepatitis B virus, Hepatocyte, 192 h, read-out: EC50, HBV DNA.
Procedure: HBV genotype D was concentrated from HepDE19 culture supernatants (2.53 × 10^10 genome equivalents [GE]/ml) and provided by WuXi. On day 0, hepatocytes were seeded into a 48-well plate at a density of 1.32 × 10^5 cells/well. On day 1, hepatocytes were infected with 200 HBV GE/cell and were cultured at 37°C and 5% CO2. […] On day 8, the culture supernatants were collected and HBV DNA was harvested with QIAamp 96 DNA blood kit (Qiagen, 51162).
Data set [9] has as its system cryopreserved primary human hepatocytes. Kind of data set: Cytotoxicity in primary human hepatocytes (CellTiter-Glo). The settings on record: up to 100 μM, 72 h. (ATP-based viability assays read luminescence as a measure of living cells.)
Procedure: (§1) HK-2 human kidney cells were obtained from ATCC (Manassas, VA) and cultured in Gibco Keratinocyte serum-free medium (Thermo Fisher Scientific, Waltham, MA) supplemented with 10% FBS (Peak Serum, Wellington, CO). Human skeletal muscle cells were obtained from Lonza (Walkersville, MD) and cultured in SkGM-2 skeletal muscle cell growth medium-2 (Lonza). Both HK-2 and skeletal muscle cells were cultured humidified at 37°C and 5% CO2. Cryopreserved human primary hepatocytes and medium were received from Lonza. Cryopreserved iCell cardiomyocytes and cardiomyocyte medium were purchased from Stem Cell Technologies (Vancouver, BC, Canada). Cryopreserved human bone marrow mononuclear cells were purchased from Lonza with HemaTox Myeloid medium purchased from [sequence] […] All cryopreserved cells (human primary hepatocytes, iCell cardiomyocytes, and human bone marrow mononuclear cells) were stored in vapor phase liquid nitrogen until the day of plating. […] Serial dilutions of compounds in DMSO were as follows: 100, 10, 1, 0.1, 0.01, 0.001, 0.0001, and 0.00001 μM (final concentration of DMSO in medium was 0.5%). […]
(§2) Following incubation, cells were dosed and incubated for 72 h at 37°C and 5% CO2. Following incubation, the endpoint cell viability CellTiter-Glo 2.0 assay (Promega, San Luis Obispo, CA) was performed and luminescence data collected on a Synergy 4 plate reader (Biotek, Winooski, VT). […]
Data set [10] deals with respiratory syncytial virus. As to the kind of experiment: Antiviral panel: respiratory syncytial virus. The data set is classed as cell-based. The settings on record: up to 100 μM, data not shown.
In data set [11] the test system is SkMC human skeletal muscle cells. Kind of data set: Cytotoxicity in skeletal muscle cells (CellTiter-Glo). The following applies: at 100 μM or greater, 72 h.
Procedure: as §1, §2
Data set [12] is described as follows: Cell viability (CC50) in HepG2.2.15 cells. The settings on record: human.
The subject of data set [13] is HBV genotype H (AB179747). As to the kind of experiment: microbe, parasite or virus in culture. It is filed as cell-based. The settings on record: Hepatitis B virus, HepG2.
The nature of data set [14]: Food effect on plasma exposure in rats. The data set is classed as in vivo. The following applies: single oral 50 mg/kg, data not shown.
Data set [15] relates to HBV genotypes A, B, C, D, E, F, G, and H. As to the kind of experiment: microbe, parasite or virus in culture. The data set is classed as cell-based. The settings on record: Hepatitis B virus, HepG2, read-out: EC50 across HBV genotypes A to H.
For data set [16], the system named is HBV. As to the kind of experiment: Serum shift of anti-HBV EC50. The data set is classed as cell-based, Hepatitis B virus. The settings on record: data not shown.
For data set [17], the system named is iCell cardiomyocytes. As to the kind of experiment: Cytotoxicity in iCell cardiomyocytes (CellTiter-Glo). The settings on record: up to 100 μM, 72 h.
Procedure: as §1, §2
Data set [18] relates to HBV genotype D. Kind of data set: Anti-HBV activity in HepG2.2.15 cells (extracellular HBV DNA by qPCR). It is filed as cell-based. The following applies: Hepatitis B virus, 192 h; HepG2.2.15 cells, qPCR, day 8; read-out: EC50, extracellular HBV DNA. As for the experimental part: ATI-2173 was obtained from WuXi SynTheAll. Entecavir (positive control) was obtained from Shanghai Titan Scientific Co., Ltd. HepG2.2.15 cells (derived from human hepatoblastoma cell-like HepG2) contain four 5′ to 3′ tandem copies of the HBV genotype D and were provided by WuXi. HepG2.2.15 cells were cultured in Dulbecco’s modified Eagle medium (DMEM)/F12 (Invitrogen, 11330032) supplemented with 2% fetal bovine serum (FBS) (HyClone, SV30087.03), 1% L-glutamine, 1% minimum essential medium (MEM) nonessential amino acid solution (NEAA), and 1% penicillin-streptomycin solution. QIAamp 96 DNA blood kit was purchased from Qiagen (51162). […] Culture medium containing ATI-2173 or entecavir (serially diluted) was added to cells on day 2 and refreshed on day 5. ATI-2173 dilutions were: 0.0006, 0.0024, 0.0098, 0.0391, 0.1563, 0.6250, 2.5000, and 10.0000 μM. On day 8, cell culture supernatants were collected and DNA was extracted by the QIAamp 96 DNA blood kit. qPCR was run at 95°C for 10 min, then cycled at 95°C for 15 s, 60°C for 1 min, for a total of 40 cycles. HBV DNA content in the samples was calculated according to the standard curve and CT (cycle threshold of qPCR) values of a sample. Data were normalized for maximum and minimum copy numbers.
(In general: Quantitative PCR measures a nucleic acid by following its amplification.)

Data set [19] relates to HBV coreT33N. As to the kind of experiment: microbe, parasite or virus in culture. It is filed as cell-based, Hepatitis B virus. The settings on record: Hepatitis B virus, HepG2.

pEC50: −log10 of the molar value. “Also recorded” adds a separate entry of the source. Some results are limits rather than exact numbers.

For `Cc1cn(C2OC(COP(=O)(NC(C)C(=O)OC(C)C)Oc3ccccc3)C(O)C2F)c(=O)[nH]c1=O` (stereo not shown) [ATI-2173], the Antiviral efficacy entry in data set [1], in data set [6] and in data set [10] was “no detectable efficacy” in each case. Moreover, the pEC50 was 6.38 in data set [2]; less than 5.00 in data set [4]; 6.79 in data set [7]; 8.88 in [8]; 6.14 in data set [13]; 6.14 to 6.67 in [15]. Besides, the pEC50 was 6.59 in [18] and 6.47 in [19]. Besides, the “Mitochondrial toxicity (cell viability in glucose versus galactose medium)” value in [3] is on record as “no apparent mitochondrial toxicity”. Further, the fraction unbound in data set [5] is approximately 0.45. Moreover, the Cytotoxicity result is “did not demonstrate any cytotoxicity” in [9], “Minimal cytotoxicity; also recorded: very mild” in data set [11] and “did not demonstrate any cytotoxicity” in [17]. The molecule also displayed a CC50 in data set [12] of more than 10000 nM. Also, the “Difference in plasma exposure (Cmax or AUC0-last) to ATI-2173 or clevudine, fed versus fasted” value in data set [14] is on record as “no discernible differences”. The “Serum shift in EC50” value in data set [16] was “no clear serum shift”.
